For test [1], the system named is Atoh1 expression in mouse cerebellar neural precursor cells. Description: Atoh1 induction assay in mouse cerebellar neural precursor cells (NPCs), Atoh1-GFP reporter. The test is classed as cell-based. The conditions noted are these: 10 doses 50 μM to 200 nM, 72 hours treatment, DMSO control = 1, more than 5 considered significant, read-out: fold difference (maximum fold difference of GFP average intensity in cell nuclei over the DMSO control). How it is done:
(§1) Compounds of the present disclosure were assessed for their ability to increase the Atoh1 expression in mouse cerebellar neural precursor cells. The ability of compounds of the present disclosure to induce new hair cell formation was assessed in ex vivo hair cell induction assay using 6-day-postnatal mouse cochlea explants with hair cell damage.
Atoh1 Induction Assay in Mouse Cerebellar Neural Precursor Cells (NPCs)
Atoh1 induction assay was conducted with in vitro cultured cerebellar neural precursor cells isolated from neonatal transgenic Atoh1-GFP mice. Atoh1 expression is mainly regulated by the enhancer, and the nuclear GFP was driven by the cloned enhancer sequence at 3′ of Atoh1 which had high conservation among mammalians. So Atoh1 induction could be reflected by GFP activation in cerebellar neural precursor cells (Helms et al., Development 2000; 127: 1185-1196; Lumpkin et al., Gene Expression Patterns 2003; 3: 389-395). Postnatal 3 days pups were dissected for cerebellum tissue isolation. The cerebellum tissue was cut into small pieces, and dissociated with 0.05% Trypsin for about 10 minutes at 37° C., and then filtered with a 70 uM cell strainer. The cells were cultured as neuropsheres for the first 2 days in ultra-low attachment dish/well-plate with DMEM/F12+1% N2 &2% B27 with 1% P/S, 20 ng/ml rhFGF2 and 20 ng/ml rhEGF (R&D Systems). Then the spheres were plated to the matrigel (1:30 diluted in DMEM/F12)-coated tissue culture dish for monolayer culture. After 4.5-5.5 days culture in vitro (DIV), cells were dissociated with 0.05% trypsin into single cells, and frozen after cell number calculation.
The cerebellar neural precursor cells (NPCs) were re-thawed from stock and cultured for another 2 days before used for Atoh1 induction assay. On the first day of assay, NPCs were seeded into matrigel-coated 384 well plates (Black view-plate, PE) at 2500 cells/well. After over-night culture, the NPCs were treated with representative compounds of the present disclosure with 1:2 serial dilutions for 10 doses, from 50 μM to 200 nM, with DMSO as negative control. After 72 hours treatment without medium change, the cells were fixed with 4% formalin for staining. Assay plates were stained with GFP antibody (Abcam, #13970, 1:1000) to amplify endogenous GFP signal and then read by Cellomics.

Test [2] concerns 6-day-postnatal mouse cochlea explants with hair cell damage. Description: Ex vivo hair cell induction assay using 6-day-postnatal mouse cochlea explants with hair cell damage. Format: cell-based. The note with it: P6 Atoh1-GFP mouse cochlea explants, neomycin-damaged; 3 to 10 μM compound for 8 days, then 4 days blank medium; mean ± SD; DMSO = 0%; more than 20% considered significant. How it is done:
as §1
Ex Vivo Hair Cell Induction Assay Using 6-Day-Postnatal Mouse Cochlea Explants with Hair Cell Damage
P6, postnatal 6 days, Atoh1-GFP mice, the same mouse strain used for Atoh1 induction assay described before, were used in this assay. The otic capsule was exposed and the cochleae were micro-dissected. […] and in vitro cultured in serum free medium (culture medium: DMEM/F12+1% N2+2% B27+5 μg/ml ampicillin) at 37° C. under a standard gas atmosphere of humidified air/5% CO2. Inner ear hair cells were damaged by 1 mM Neomycin treatment for 1.25 h. After the neomycin treatment, explants were cultured in blank culture medium for 7 days before the treatment of selected compounds.
For compound administration, the cochlea explants were treated with 3 to 10 μM compound of the present disclosure, with DMSO as the negative control for 8 days with once compound/medium change. After 8 days treatment, the tested compound was removed. The explants were cultured in blank medium for additional 4 days. The cochlea explant cultures then were fixed with 4% w/v formalin and processed for Myo7a immunofluorescence (Myo7a is a specific marker for sensory hair cell) using the rabbit anti-Myo7a antibody (Protus Biosci #25-6790, 1:250 diluted in PBS containing 3% BSA). Rhodamine labeled Goat-anti-rabbit IgG (Molecular Prob. #R6394, 1:1000 diluted in PBS containing 3% BSA) was used as the secondary antibody to visualize the Myo7a positive cells. The images were collected and analyzed using the EVOS image system (Thermo-Fisher Scientific). […] The hair cell identity of the ectopically formed cells was confirmed by staining the cells with multiple hair cell markers.
The efficacy of hair cells induction in this assay is represented by the responsive length percentage of Atoh1 and Myo7a double positive cells in the damaged whole explants after compound treatment. The responsive length percentage was calculated according to the equation of ((the explant length with Atoh1 and Myo7a double positive cells/the full length of cochlea explant)*100%). Note the value of DMSO control is 0% due to total damage of hair cells, and any responsive length percentage more than 20% is considered as significant hair cell induction.

We go through 25 compounds from patent US20220117945A1, “ISOXAZOLE CARBOXAMIDE COMPOUNDS AND USES THEREOF” (NOVARTIS AG, priority 2017, published 2022).

In the case of `CC1CN(CCCCCNC(=O)c2cc(-c3cccs3)on2)CC(C)N1C` (centres unmarked) [Example 15, 5-(Thiophen-2-yl)-N-(5-(3,4,5-trimethylpiperazin-1-yl)pentyl)isoxazole-3-carboxamide], in test [1], the maximal fold induction stood at 15.3. Further, in test [2], the “Responsive length % (explant length with Atoh1 and Myo7a double positive cells / full length of cochlea explant)” value stood at 50.1 ± 9.9%.
In the case of `CN1CCN(CCCCCNC(=O)c2cc(-c3ccc(F)cc3)on2)CC1` [Example 10, 5-(4-Fluorophenyl)-N-(5-(4-methylpiperazin-1-yl)pentyl)isoxazole-3-carboxamide], the maximal fold induction in test [1] turned out to be 17.6. In addition, the “Responsive length % (explant length with Atoh1 and Myo7a double positive cells / full length of cochlea explant)” value in test [2] came to 59.1 ± 9.1%.
Regarding `O=C(NCCCCCN1CC(O)C1)c1cc(-c2ccc(F)cc2)on1` [Example 67], the maximal fold induction in test [1] is 18.9. Also, in test [2], the “Responsive length % (explant length with Atoh1 and Myo7a double positive cells / full length of cochlea explant)” value turned out to be 58.2 ± 3.5%.
For `O=C(NCCCCCN1CC(CO)C1)c1cc(-c2cccs2)on1` [Example 55], the maximal fold induction in test [1] came to 29. The “Responsive length % (explant length with Atoh1 and Myo7a double positive cells / full length of cochlea explant)” value in test [2] turned out to be 53.1 ± 6.2%.
Consider `CC1CN(CCCCCNC(=O)c2cc(-c3cccs3)on2)CC(C)N1` (centres unmarked) [Example 14, N-(5-(3,5-Dimethylpiperazin-1-yl)pentyl)-5-(thiophen-2-yl)isoxazole-3-carboxamide], for which the maximal fold induction in test [1] was 29.1. Further, the “Responsive length % (explant length with Atoh1 and Myo7a double positive cells / full length of cochlea explant)” value in test [2] stood at 45.3 ± 6.7%.
For the compound `CN1CC2CCC1CN2CCCCCNC(=O)c1cc(-c2cccs2)on1` (centres unmarked) [Example 52, N-(5-(5-methyl-2,5-diazabicyclo[2.2.2]octan-2-yl)pentyl)-5-(thiophen-2-yl)isoxazole-3-carboxamide], the maximal fold induction in test [1] stood at 26.7. For the same compound, the “Responsive length % (explant length with Atoh1 and Myo7a double positive cells / full length of cochlea explant)” value in test [2] came to 28.2 ± 11.9%.
`O=C(NCCCCCN1CC(F)C1)c1cc(-c2cccs2)on1` [Example 59]: the maximal fold induction in test [1] was found to be 29.1. In test [2], the “Responsive length % (explant length with Atoh1 and Myo7a double positive cells / full length of cochlea explant)” value is 54.1 ± 5.8%.
For `N#CCC1CN(CCCCCNC(=O)c2cc(-c3ccc(F)cc3)on2)C1` [Example 66], in test [1], the maximal fold induction worked out at 25.1. Also, in test [2], the “Responsive length % (explant length with Atoh1 and Myo7a double positive cells / full length of cochlea explant)” value stood at 61.5 ± 6.0%.
Take `NC(=O)C1CN(CCCCCNC(=O)c2cc(-c3cccs3)on2)C1` [Example 27, N-(5-(3-Carbamoylazetidin-1-yl)pentyl)-5-(thiophen-2-yl)isoxazole-3-carboxamide]: the maximal fold induction in test [1] worked out at 33.7. Moreover, the “Responsive length % (explant length with Atoh1 and Myo7a double positive cells / full length of cochlea explant)” value in test [2] was determined as 66.0 ± 2.4%.
Taken in the same sequence, the figures for `C[C@@H]1CN(CCCCCNC(=O)c2cc(-c3cccs3)on2)C[C@H](C)O1` [Example 42] were 23.7 and 28.8 ± 8.3%.
In the case of `O=C(NCCCCCN1CC[C@H](O)C1)c1cc(-c2cccs2)on1` [Example 36], in test [1], the maximal fold induction was 15.7. Further, the “Responsive length % (explant length with Atoh1 and Myo7a double positive cells / full length of cochlea explant)” value in test [2] was 28.1 ± 6.3%.
Turning to `O=C(NCCCCCN1CC(O)C1)c1cc(-c2cccs2)on1` [Example 48], in test [1], the maximal fold induction amounted to 37.5. Moreover, the “Responsive length % (explant length with Atoh1 and Myo7a double positive cells / full length of cochlea explant)” value in test [2] came out at 75.8 ± 4.5%.
With `O=C(NCCCCCN1CC2CCC(C1)O2)c1cc(-c2cccs2)on1` [Example 51, N-(5-(8-oxa-3-azabicyclo[3.2.1]octan-3-yl)pentyl)-5-(thiophen-2-yl)isoxazole-3-carboxamide], the maximal fold induction in test [1] was determined as 9.9. In test [2], the “Responsive length % (explant length with Atoh1 and Myo7a double positive cells / full length of cochlea explant)” value is reported as 48.6 ± 3.0%.
The matching figures for `O=C(NCCCCCN1CC[C@H](F)C1)c1cc(-c2cccs2)on1` [Example 45, (S)—N-(5-(3-fluoropyrrolidin-1-yl)pentyl)-5-(thiophen-2-yl)isoxazole-3-carboxamide]: 24 and 51.9 ± 14.9%.
Taken in the same sequence, the figures for `N#CC1CCN(CCCCCNC(=O)c2cc(-c3cccs3)on2)CC1` [Example 56] were 36.9 and 26.5 ± 9.4%.
In the case of `COC1CN(CCCCCNC(=O)c2cc(-c3cccs3)on2)C1` [Example 47], the maximal fold induction in test [1] was found to be 27.8. The “Responsive length % (explant length with Atoh1 and Myo7a double positive cells / full length of cochlea explant)” value in test [2] stood at 64.4 ± 17.2%.
`O=C(NCCCCCN1CC2CCC(C1)N2)c1cc(-c2cccs2)on1` [Example 11, N-(5-(3,8-Diazabicyclo[3.2.1]octan-3-yl)pentyl)-5-(thiophen-2-yl)isoxazole-3-carboxamide]: the maximal fold induction in test [1] came out at 12.4. For the same compound, the “Responsive length % (explant length with Atoh1 and Myo7a double positive cells / full length of cochlea explant)” value in test [2] was 51.7 ± 8.1%.
Consider `NC(=O)C1CN(CCCCCNC(=O)c2cc(-c3ccc(F)cc3)on2)C1` [Example 65, N-(5-(3-carbamoylazetidin-1-yl)pentyl)-5-(4-fluorophenyl)isoxazole-3-carboxamide], for which, in test [1], the maximal fold induction turned out to be 29.8. The “Responsive length % (explant length with Atoh1 and Myo7a double positive cells / full length of cochlea explant)” value in test [2] came to 43.1 ± 7.6%.
In the case of `CN1CCN(CCCCCNC(=O)c2cc(-c3cccs3)on2)CC1` [Example 8, N-(5-(4-Methylpiperazin-1-yl)pentyl)-5-(thiophen-2-yl)isoxazole-3-carboxamide], the maximal fold induction in test [1] worked out at 30.9. The “Responsive length % (explant length with Atoh1 and Myo7a double positive cells / full length of cochlea explant)” value in test [2] is on record as 54.0 ± 6.3%.
As to `O=C(NCCCCCN1CCN(CCO)CC1)c1cc(-c2cccs2)on1` [Example 54, N-(5-(4-(2-hydroxyethyl)piperazin-1-yl)pentyl)-5-(thiophen-2-yl)isoxazole-3-carboxamide], the maximal fold induction in test [1] worked out at 27.8. Besides, in test [2], the “Responsive length % (explant length with Atoh1 and Myo7a double positive cells / full length of cochlea explant)” value stood at 35.6 ± 11.8%.
On to `O=C(NCCCCCN1CCC(F)CC1)c1cc(-c2cccs2)on1` [Example 53], for which the maximal fold induction in test [1] was found to be 22.9. In addition, the “Responsive length % (explant length with Atoh1 and Myo7a double positive cells / full length of cochlea explant)” value in test [2] was determined as 34.7 ± 9.8%.
Regarding `CN1C2CCC1CN(CCCCCNC(=O)c1cc(-c3cccs3)on1)C2` [Example 12, N-(5-(8-Methyl-3,8-diazabicyclo[3.2.1]octan-3-yl)pentyl)-5-(thiophen-2-yl)isoxazole-3-carboxamide], the maximal fold induction in test [1] stood at 21.1. In addition, the “Responsive length % (explant length with Atoh1 and Myo7a double positive cells / full length of cochlea explant)” value in test [2] stood at 39.7 ± 8.2%.
Regarding `CC(=O)N1CCN(CCCCCNC(=O)c2cc(-c3cccs3)on2)CC1` [Example 40], in test [1], the maximal fold induction is 21.5. In addition, in test [2], the “Responsive length % (explant length with Atoh1 and Myo7a double positive cells / full length of cochlea explant)” value turned out to be 36.9 ± 7.4%.
Turning to `COC(=O)NC1CN(CCCCCNC(=O)c2cc(-c3cccs3)on2)C1` [Example 17, Methyl (1-(5-(5-(thiophen-2-yl)isoxazole-3-carboxamido)pentyl)azetidin-3-yl)carbamate], the maximal fold induction in test [1] came to 34.6. The “Responsive length % (explant length with Atoh1 and Myo7a double positive cells / full length of cochlea explant)” value in test [2] is 52.9 ± 6.8%.
The matching figures for `N#CCC1CN(CCCCCNC(=O)c2cc(-c3cccs3)on2)C1` [Example 49]: 37.1 and 47.5 ± 9.2%.
